Measured values from BindingDB's records for patent US9403804 (Janssen Pharmaceutica, 2016).

Molecular target: Macrophage colony-stimulating factor 1 receptor (Homo sapiens, UniProt P07333)
Assay: Fluorescence Polarization Competition Immunoassay
Details: pH 7.5; 25 °C
Method: The assay buffer used was 100 mM 4-(2-hydroxyethyl)piperazine 1-ethanesulfonic acid (HEPES), pH 7.5, 1 mM 1,4-dithio-DL-threitol (DTT), 0.01% (v/v) Tween-20. Compounds were diluted in assay buffer containing 4% dimethylsulfoxide (DMSO) just prior to the assay. To each well, 5 μL of compound were added followed by the addition of 3 μL of a mix containing 33 nM c-fms (Johnson & Johnson PRD) and 16.7 mM MgCl2 (Sigma) in assay buffer. The kinase reaction was initiated by adding 2 μL of 5 mM ATP (Sigma) in assay buffer. The final concentrations in the assay were 10 nM c-fms, 1 mM ATP, 5 mM MgCl2, 2% DMSO. Control reactions were ran in each plate: in positive and negative control wells, assay buffer (made 4% in DMSO) was substituted for the compound; in addition, positive control wells received 1.2 μL of 50 mM ethylenediaminetetraaceticacid (EDTA). The plates were incubated at room temperature for 45 min. At the end of the incubation, the reaction was quenched with 1.2 μL of 50 mM EDTA (EDTA was not added to the positive control wells at this point; see above). Following a 5-min incubation, each well received 10 μL of a 1:1:3 mixture of anti-phosphotyrosine antibody, 10×, PTK green tracer, 10× (vortexed), FP dilution buffer, respectively (all from PanVera, cat. # P2837). The plate was covered, incubated for 30 min at room temperature and the fluorescence polarization was read on the Analyst. […]

Sequence of Macrophage colony-stimulating factor 1 receptor (P07333 whole entry): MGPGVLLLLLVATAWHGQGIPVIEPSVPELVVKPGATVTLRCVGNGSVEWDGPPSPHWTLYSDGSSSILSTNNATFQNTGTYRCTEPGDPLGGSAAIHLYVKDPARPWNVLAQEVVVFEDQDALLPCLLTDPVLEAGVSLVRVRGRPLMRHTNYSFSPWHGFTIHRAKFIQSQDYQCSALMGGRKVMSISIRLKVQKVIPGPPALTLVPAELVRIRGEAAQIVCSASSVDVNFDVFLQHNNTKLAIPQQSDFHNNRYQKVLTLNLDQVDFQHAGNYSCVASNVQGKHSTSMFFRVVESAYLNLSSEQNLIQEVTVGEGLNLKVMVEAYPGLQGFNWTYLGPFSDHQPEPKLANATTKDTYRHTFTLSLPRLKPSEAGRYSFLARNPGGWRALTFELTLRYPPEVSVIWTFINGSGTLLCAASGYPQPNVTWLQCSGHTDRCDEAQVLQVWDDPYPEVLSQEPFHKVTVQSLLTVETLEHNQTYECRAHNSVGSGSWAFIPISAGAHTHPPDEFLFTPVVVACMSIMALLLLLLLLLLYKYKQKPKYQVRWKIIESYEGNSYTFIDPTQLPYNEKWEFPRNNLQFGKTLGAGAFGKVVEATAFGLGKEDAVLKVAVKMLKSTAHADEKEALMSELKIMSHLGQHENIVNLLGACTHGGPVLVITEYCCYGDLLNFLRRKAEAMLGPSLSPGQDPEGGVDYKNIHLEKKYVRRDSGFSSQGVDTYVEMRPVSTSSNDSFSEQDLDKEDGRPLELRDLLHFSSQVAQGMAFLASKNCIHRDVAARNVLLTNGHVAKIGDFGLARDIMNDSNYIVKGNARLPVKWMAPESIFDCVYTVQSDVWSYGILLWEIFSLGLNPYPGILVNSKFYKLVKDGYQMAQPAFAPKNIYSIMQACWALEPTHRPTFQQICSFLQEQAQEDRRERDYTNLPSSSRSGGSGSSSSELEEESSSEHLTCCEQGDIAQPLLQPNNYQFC

IC50 [nM] | SMILES
0.72 | CC1(C)CC=C(c2cc([C@]3(O)CC[C@@H](N4CCOCC4)CC3)ccc2NC(=O)c2nc(C#N)c[nH]2)CC1 [US9403804, 44]
3.4 | CC1(C)CC=C(c2cc([C@]3(O)CC[C@H](N4CCOCC4)CC3)ccc2NC(=O)c2nc(C#N)c[nH]2)CC1 [US9403804, 45]
